Results reported in US20020142982A1, “Method for regulating angiogenesis” (priority 1999, published 2002).

Test system: EDG-1
Assay: Phosphorylation of endogenous EDG-1 in 32P-labeled HUVEC
Type: cell-based, human
Settings: S1P 5-60 min
Protocol: (Upper panel) Normal HUVEC cells were labelled with [^32P]-orthophosphate, and stimulated with 100 nM S1P for indicated times. Cell extracts were immunoprecipitated with the affinity-purifed anti-EDG-1 IgY, separated on a SDS-PAGE and autoradiographed. (Middle panel) Some cells were treated with 10 μM LY294002 or 100 nM Wortmannin prior to stimulation with S1P and EDG-1 phosphorylation was examined as above. (Lower panel) Some cells were transduced with 100 MOI of wild-type (wt)-Akt, dominant negative (dn)-Akt or the β-gal virus for 12 h prior to stimulation with S1P. EDG-1 phosphorylation was examined as above.
To label the EDG-1 receptor in HUVEC and HEK293EDG-1 cells, they were pre-incubated in phosphate-free DMEM (GIBCO-BRL) for 2 hr. Subsequently, cells were labeled with [^32P] orthophosphate (80 μCl/ml) for 3 hr. To examine the effect of P1-3 kinase, cultures were treated with wortmannin (100 nM) or LY294002 (10 μM) during tine last hour of labeling. After SPP stimulation, ^32P-labeled EDG-1 receptor was immunoprecipitated with either chicken anti-EDG-1 1gY or anti-M2, resolved on SDS-PAGE, and visualized by autoradiography.
Chicken anti-human EDG-1 antibodies against human EDG-1 polypeptide expressed in E. coli were raised in Aves Labs, Tigard, Oreg. This antibody specifically detected EDG-1 polypeptide in HUVEC cells and transfected HEK293 cells. […]

Structure (SMILES): CCCCCCCCCCCCC/C=C/[C@@H](O)[C@@H](N)COP(=O)(O)O [SPP, sphingosine-1-phosphate]
- radiolabeling of the endogenous EDG-1 polypeptide: increased
